In test [1] the test system is Staphylococcus epidermidis. Kind of test: Antibacterial activity against Staphylococcus epidermidis ATCC 12228 after 18 hrs. The class given is functional. Conditions: ATCC 12228, 18 h.
Test [2] has as its system Staphylococcus aureus. The experiment in a line: Antibacterial activity against Staphylococcus aureus ATCC 25923 after 18 hrs. Type of test: functional. The settings on record: ATCC 25923, 18 h.
The test system of another test is Shigella flexneri. The experiment in a line: Antibacterial activity against Shigella flexneri NCTC 8516 after 18 hrs. The class given is functional. The settings on record: NCTC 8516, 18 h.
Test [3] has as its system Staphylococcus aureus. The experiment in a line: Antibacterial activity against methicillin-resistant Staphylococcus aureus isolate 1 after 18 hrs. Type of test: functional.
The test system of a further test is Salmonella typhi. Kind of test: Antibacterial activity against Salmonella typhi ATCC 19430 after 18 hrs. The class given is functional, Salmonella enterica subsp. enterica serovar Typhi. Conditions: Salmonella enterica, ATCC 19430, 18 h.
A further test deals with Enterococcus faecalis. The experiment in a line: Antibacterial activity against Enterococcus faecalis NCTC 6013 after 18 hrs. Conditions: NCTC 6013, 18 h. Type of test: functional.
For test [4], the system named is Escherichia coli. Kind of test: Antibacterial activity against Escherichia coli ATCC 25922 after 18 hrs. Type of test: functional. Conditions: ATCC 25922, 18 h.
The subject of test [5] is Staphylococcus epidermidis. Kind of test: Antibacterial activity against Staphylococcus epidermidis ATCC 14940 after 18 hrs. The settings on record: ATCC 14940, 18 h. Type of test: functional.
The test system of test [6] is Staphylococcus aureus. Kind of test: Antibacterial activity against methicillin-resistant Staphylococcus aureus isolate 2 after 18 hrs. The class given is functional.
The test system of the next test is Bacillus subtilis. The experiment in a line: Antibacterial activity against Bacillus subtilis ATCC 6051 after 18 hrs. The settings on record: ATCC 6051, 18 h. The class given is functional.
Another test concerns Pseudomonas aeruginosa. The experiment in a line: Antibacterial activity against Pseudomonas aeruginosa ATCC 27853 after 18 hrs. Type of test: functional. The settings on record: ATCC 27853, 18 h.
In a further test the test system is Serratia marcescens. The experiment in a line: Antibacterial activity against Serratia marcescens PTCC 1111 after 18 hrs. The class given is functional.
A further test deals with Klebsiella pneumoniae. Kind of test: Antibacterial activity against Klebsiella pneumoniae ATCC 10031 after 18 hrs. Conditions: ATCC 10031, 18 h. The class given is functional.
Test [7] has as its system Staphylococcus aureus. The experiment in a line: Antibacterial activity against Staphylococcus aureus ATCC 6538p after 18 hrs. The class given is functional.
The subject of test [8] is Escherichia coli. The experiment in a line: Antibacterial activity against Escherichia coli NCTC 12900 after 18 hrs. Type of test: functional. The settings on record: NCTC 12900, 18 h.

Our source for the MIC values is ChEMBL document CHEMBL1147210, “Synthesis and antibacterial activity of levofloxacin derivatives with certain bulky residues on piperazine ring” (Eur J Med Chem, 2007).

Molecules are shown by their SMILES. In brackets after ≈: the same amount, converted by molar mass.

As to `C[C@H]1COc2c(N3CCN(C/C(=N\O)c4ccccc4)CC3)c(F)cc3c(=O)c(C(=O)O)cn1c23`, the MIC (as a rule, the lowest concentration that inhibits growth of the organism) in test [1] is 0.5 µg/mL (≈ 1.04 µM); in the test with Staphylococcus aureus [2], 0.5 µg/mL (≈ 1.04 µM); in the test with Shigella flexneri it was 0.5 µg/mL (≈ 1.04 µM); in the test on Staphylococcus aureus [3], 0.5 µg/mL (≈ 1.04 µM); with Salmonella typhi it was 0.5 µg/mL (≈ 1.04 µM); against Enterococcus faecalis, 4 µg/mL (≈ 8.32 µM). Besides, the MIC with Escherichia coli [4] is 4 µg/mL (≈ 8.32 µM); in test [5], 0.5 µg/mL (≈ 1.04 µM); against Staphylococcus aureus [6], 1 µg/mL (≈ 2.08 µM); in the test on Bacillus subtilis, 0.25 µg/mL (≈ 0.52 µM); in the test on Pseudomonas aeruginosa, > 4 µg/mL; in the test on Serratia marcescens it was > 4 µg/mL. In addition, the MIC in the test on Klebsiella pneumoniae stood at 4 µg/mL (≈ 8.32 µM); in the test with Staphylococcus aureus [7] it was 0.5 µg/mL (≈ 1.04 µM); in the test on Escherichia coli [8], 4 µg/mL (≈ 8.32 µM).
As for `COc1ccc(/C(CN2CCN(c3c(F)cc4c(=O)c(C(=O)O)cn5c4c3OC[C@@H]5C)CC2)=N/O)cc1`, the MIC amounted to 0.5 µg/mL (≈ 0.979 µM) in [1]; 1 µg/mL (≈ 1.96 µM) against Staphylococcus aureus [2]; 0.5 µg/mL (≈ 0.979 µM) against Shigella flexneri; 1 µg/mL (≈ 1.96 µM) against Staphylococcus aureus [3]; 0.5 µg/mL (≈ 0.979 µM) against Salmonella typhi; 0.06 µg/mL (≈ 0.118 µM) in the test on Enterococcus faecalis. The MIC was 0.5 µg/mL (≈ 0.979 µM) in the test on Escherichia coli [4]; 0.5 µg/mL (≈ 0.979 µM) in test [5]; 0.5 µg/mL (≈ 0.979 µM) with Staphylococcus aureus [6]; 0.12 µg/mL (≈ 0.235 µM) against Bacillus subtilis; > 4 µg/mL in the test on Pseudomonas aeruginosa; > 4 µg/mL in the test with Serratia marcescens. The MIC in the test with Klebsiella pneumoniae is > 4 µg/mL; against Staphylococcus aureus [7] it was 0.5 µg/mL (≈ 0.979 µM); against Escherichia coli [8], 0.5 µg/mL (≈ 0.979 µM).
In the case of `C[C@H]1COc2c(N3CCN(C/C(=N\O)c4ccc(Cl)cc4Cl)CC3)c(F)cc3c(=O)c(C(=O)O)cn1c23`, the minimum inhibitory concentration (MIC) in test [1] is 0.5 µg/mL (≈ 0.91 µM); against Staphylococcus aureus [2], 0.5 µg/mL (≈ 0.91 µM); in the test on Shigella flexneri it was 4 µg/mL (≈ 7.28 µM); in the test on Staphylococcus aureus [3], 0.5 µg/mL (≈ 0.91 µM); in the test with Salmonella typhi it was 4 µg/mL (≈ 7.28 µM); against Enterococcus faecalis, 4 µg/mL (≈ 7.28 µM). Moreover, the MIC in the test with Escherichia coli [4] is 4 µg/mL (≈ 7.28 µM); in test [5], 0.5 µg/mL (≈ 0.91 µM); against Staphylococcus aureus [6] it was 0.5 µg/mL (≈ 0.91 µM); in the test on Bacillus subtilis it was 1 µg/mL (≈ 1.82 µM); in the test with Pseudomonas aeruginosa, > 4 µg/mL; against Serratia marcescens, > 4 µg/mL. For the same compound, the MIC is > 4 µg/mL with Klebsiella pneumoniae, 0.5 µg/mL (≈ 0.91 µM) against Staphylococcus aureus [7] and 4 µg/mL (≈ 7.28 µM) in the test on Escherichia coli [8].
Regarding `C[C@H]1COc2c(N3CCN(C)CC3)c(F)cc3c(=O)c(C(=O)O)cn1c23.C[C@H]1COc2c(N3CCN(C)CC3)c(F)cc3c(=O)c(C(=O)O)cn1c23.O` [LEVOFLOXACIN], the MIC turned out to be 0.25 µg/mL in test [1]; 0.5 µg/mL against Staphylococcus aureus [2]; 0.03 µg/mL against Shigella flexneri; 0.25 µg/mL with Staphylococcus aureus [3]; 0.03 µg/mL against Salmonella typhi; 1 µg/mL in the test on Enterococcus faecalis. The MIC in test [5] turned out to be 0.5 µg/mL; in the test with Staphylococcus aureus [6] it was 0.25 µg/mL; in the test on Bacillus subtilis, 0.5 µg/mL; in the test on Serratia marcescens, 0.5 µg/mL; against Klebsiella pneumoniae it was 0.25 µg/mL; in the test on Staphylococcus aureus [7], 0.25 µg/mL.
Turning to `C[C@H]1COc2c(N3CCN(CC(=O)c4ccc(F)cc4)CC3)c(F)cc3c(=O)c(C(=O)O)cn1c23`, the MIC in [1] stood at 0.5 µg/mL (≈ 1.03 µM); in the test with Staphylococcus aureus [2], 1 µg/mL (≈ 2.07 µM); against Shigella flexneri, 1 µg/mL (≈ 2.07 µM); against Staphylococcus aureus [3], 0.5 µg/mL (≈ 1.03 µM); in the test with Salmonella typhi, 1 µg/mL (≈ 2.07 µM); in the test on Enterococcus faecalis, 0.25 µg/mL (≈ 0.517 µM). Also, the MIC in the test with Escherichia coli [4] is 1 µg/mL (≈ 2.07 µM); in test [5], 0.5 µg/mL (≈ 1.03 µM); with Staphylococcus aureus [6], 1 µg/mL (≈ 2.07 µM); in the test on Bacillus subtilis, 0.5 µg/mL (≈ 1.03 µM); in the test on Pseudomonas aeruginosa, > 4 µg/mL; with Serratia marcescens, > 4 µg/mL. The MIC was > 4 µg/mL in the test with Klebsiella pneumoniae, 1 µg/mL (≈ 2.07 µM) in the test on Staphylococcus aureus [7] and 2 µg/mL (≈ 4.14 µM) against Escherichia coli [8].
Regarding `COc1ccc(C(=O)CN2CCN(c3c(F)cc4c(=O)c(C(=O)O)cn5c4c3OC[C@@H]5C)CC2)cc1`, the MIC amounted to 0.25 µg/mL (≈ 0.505 µM) in test [1]; 0.5 µg/mL (≈ 1.01 µM) against Staphylococcus aureus [2]; 0.5 µg/mL (≈ 1.01 µM) with Shigella flexneri; 0.5 µg/mL (≈ 1.01 µM) in the test with Staphylococcus aureus [3]; 0.5 µg/mL (≈ 1.01 µM) in the test with Salmonella typhi; 0.06 µg/mL (≈ 0.121 µM) against Enterococcus faecalis. Further, the minimum inhibitory concentration (MIC) with Escherichia coli [4] was 0.5 µg/mL (≈ 1.01 µM); in test [5], 0.25 µg/mL (≈ 0.505 µM); in the test with Staphylococcus aureus [6], 1 µg/mL (≈ 2.02 µM); against Bacillus subtilis, 0.25 µg/mL (≈ 0.505 µM); with Pseudomonas aeruginosa it was > 4 µg/mL; against Serratia marcescens, 4 µg/mL (≈ 8.07 µM). In addition, the values for the minimal inhibitory concentration (MIC) in the test on Klebsiella pneumoniae, against Staphylococcus aureus [7] and against Escherichia coli [8] were 4 µg/mL (≈ 8.07 µM), 0.5 µg/mL (≈ 1.01 µM) and 0.5 µg/mL (≈ 1.01 µM), respectively.
